This note sets out measurements from PubChem BioAssay (NCI).

Holding throughout (test): DTP human tumour cell line panel, 48 h
For experiment [1], the system named is SF-295 CNS.
For experiment [2], the system named is OVCAR-4 ovarian.
For experiment [3], the system named is ACHN renal.
Experiment [4] has as its system SK-MEL-5 melanoma.
Experiment [5] concerns CCRF-CEM leukemia.
Experiment [6] deals with HCT-15 colon.
For experiment [7], the system named is RXF 393 renal.
The test system of experiment [8] is MOLT-4 leukemia.
The subject of experiment [9] is SK-MEL-2 melanoma.

Structures are written as SMILES.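 Each compound was tested at five concentrations against cells in 96-well plates for 48 hours. Here, GI50 denotes the concentration required for 50% inhibition of growth. TGI: total growth inhibition.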 Some results are limits rather than exact numbers.

Take `CCCC(=O)Nc1cc2c3c(c1)CCCN3CCC2`: the TGI in experiment [1], in experiment [2], in experiment [3], in [4], in experiment [5] and in experiment [6] was over 10 µM in each case.
Take `COc1cc2c(cc1OCCCNC(=O)c1cccc3c(=O)c4ccccc4[nH]c13)N=C[C@@H]1CCCN1C2=O`: the GI50 in [7] is 0.0865 µM; in experiment [8], 4.03 µM; in [1], under 0.0508 µM; in experiment [2], under 0.01 µM; in experiment [3], 0.0197 µM; in experiment [9], 2.37 µM. Further, the values for the concentration for 50% growth inhibition (GI50) in experiment [5] and in experiment [6] were under 0.01 µM and 0.114 µM, respectively. Further, the TGI in [7] was 0.301 µM; in experiment [8] it was over 100 µM; in experiment [1], 4.46 µM; in experiment [2] it was 10.8 µM; in experiment [3] it was over 100 µM; in experiment [9], 4.82 µM. For the same compound, the total growth inhibition concentration (TGI) in experiment [6] is over 100 µM.
With `C#C[C@]1(O)CCC2C3CCc4cc(O)ccc4C3CC[C@@]21C` (stereo partly drawn), the GI50 is 4.66 µM in experiment [7]; 3.65 µM in experiment [8]; 2.7 µM in [1]; 6.76 µM in [2]; 9.42 µM in [3]; 5.81 µM in experiment [9]. In addition, the GI50 was 2.24 µM in [4] and 4.9 µM in experiment [6]. In addition, the TGI turned out to be 17.7 µM in [7]; 26.3 µM in [8]; 12.2 µM in experiment [1]; 33.6 µM in experiment [2]; 85.1 µM in [3]; 26.8 µM in experiment [9]. Also, the figures for the TGI in experiment [4] and in experiment [6] were 7.6 µM and 73 µM, respectively.
`COc1ccc2c(c1)C(=O)c1c-2c(N2CCN(C(=O)CNCCNCCO)CC2)nc2ccccc12`: the GI50 in experiment [8] was 2.19 µM; in [1], 12.4 µM; in experiment [2], 6.71 µM; in experiment [3], 11 µM; in experiment [9], 2.2 µM; in [4], 13.3 µM. Moreover, the GI50 in [5] was 1.98 µM; in experiment [6], 7.81 µM. For the same compound, the TGI was determined as 6.61 µM in experiment [8]; 32.3 µM in experiment [1]; 19.4 µM in experiment [2]; 24.9 µM in experiment [3]; 4 µM in experiment [9]; 27.5 µM in experiment [4]. Also, the TGI is 5.22 µM in experiment [5] and 22.4 µM in experiment [6].
As for `CCOC(=O)Nc1ccc(C)c(NC(=O)OCC)c1`, the TGI in experiment [7], in [8], in experiment [1], in experiment [3], in experiment [9] and in experiment [4] was over 100 µM each time. In addition, the total growth inhibition concentration (TGI) in experiment [5] and in experiment [6] was over 100 µM in each case.
As for `O=C(CC1(O)C(=O)N(Cc2ccccc2)c2ccc(F)cc21)c1ccc(C(=O)NCC2CCC3(CC2)OOC2(CCCCC2)OO3)cc1` (stereo not drawn), the GI50 in [7] was 0.317 µM; in experiment [1], 0.654 µM; in [2], 1.81 µM; in experiment [3] it was 0.179 µM; in experiment [9] it was 2 µM; in experiment [4], 1.54 µM. Besides, the 50% growth inhibitory concentration (GI50) is 0.274 µM in experiment [5] and 0.867 µM in experiment [6]. In addition, the TGI was found to be 0.851 µM in experiment [7]; 1.69 µM in experiment [1]; 4.62 µM in experiment [2]; 0.363 µM in [3]; 4.13 µM in [9]; 2.96 µM in experiment [4]. The TGI in [5] was 0.924 µM; in experiment [6], 3.2 µM.
As to `COc1ccc(NC(=O)/C(Cc2cc(=O)oc3cc(O)ccc23)=N\NC(C)(C)C)c(OC)c1`, the TGI in experiment [8], in [1], in [2], in experiment [3], in [9] and in experiment [4] was over 100 µM in each case. The TGI in [5] and in [6] was over 100 µM each time.
Take `C=C(C)[C@@H]1CC[C@]2(C)[C@H](CC=C3[C@@H]4CC(C)(C)CC[C@]4(C(N)=O)CC[C@]32C)[C@@]1(C)CCC#N`: the GI50 in experiment [7] was 2.34 µM; in [1], 3.91 µM; in experiment [2], 2.56 µM; in experiment [3], 3.01 µM; in experiment [9], 5.28 µM; in [4], 1.83 µM. For the same compound, the GI50 is 3.02 µM in experiment [5] and 3.14 µM in [6]. Also, the concentration for total growth inhibition (TGI) in experiment [7] was 5.11 µM; in experiment [1], over 100 µM; in experiment [2], over 100 µM; in [3], 51.2 µM; in [9], over 100 µM; in [4], 3.31 µM. Also, the TGI in [5] and in experiment [6] was over 100 µM throughout.
Regarding `COc1ccc(Nc2nnc(-c3cc(O)ccc3O)s2)cc1`, the GI50 was 30.6 µM in experiment [7]; 6.5 µM in experiment [8]; over 50 µM in [1]; 11.7 µM in experiment [2]; over 50 µM in experiment [3]; 23.1 µM in experiment [9]. The GI50 was 10.3 µM in experiment [4] and over 50 µM in [6]. For the same compound, the TGI in experiment [7] was over 50 µM; in [8] it was 20.6 µM; in [1], over 50 µM; in experiment [2] it was over 50 µM; in experiment [3], over 50 µM; in [9], over 50 µM. For the same compound, the results for the TGI in [4] and in experiment [6] were 27.2 µM and over 50 µM, respectively.
For the compound `COc1cc(-c2cc(-c3cc4c([nH]c5ccccc54)c(-c4cc(OC)c(OC)c(OC)c4)n3)cc(-c3ccccc3)n2)cc(OC)c1OC`, the GI50 in experiment [7] was 2.7 µM; in [8], 4.09 µM; in experiment [2] it was 5.31 µM; in [3] it was 4.57 µM; in experiment [9], 2.58 µM; in [4] it was 2.46 µM. Also, the GI50 is 3.6 µM in experiment [5] and 3.37 µM in experiment [6]. The TGI is 12.2 µM in [7]; 41.9 µM in experiment [8]; 74.2 µM in experiment [2]; over 100 µM in experiment [3]; 6.36 µM in experiment [9]; 7.61 µM in experiment [4]. Also, the TGI in experiment [5] and in experiment [6] was over 100 µM throughout.

The term TGI denotes the concentration at which net growth stops. A low value points to more potent growth arrest. What is called GI50 is the concentration that inhibits growth by half.
